Experimental data as given in US20050192314A1, “Urea derivatives as C-kit modulators” (Ambit Biosciences Corporation, priority 2003, published 2005).

The compounds below were run against T1, KIT(DKIN) (Homo sapiens, UniProt P10721) (assay: Binding constant (Kd) measurement, phage-displayed kinase competition binding assay: KIT(DKIN)).
T1 construct: KIT(DKIN); made in house
Description: (§1) The term “ND” represents non-determined values.

T1 sequence (P10721 589-937 limits assumed): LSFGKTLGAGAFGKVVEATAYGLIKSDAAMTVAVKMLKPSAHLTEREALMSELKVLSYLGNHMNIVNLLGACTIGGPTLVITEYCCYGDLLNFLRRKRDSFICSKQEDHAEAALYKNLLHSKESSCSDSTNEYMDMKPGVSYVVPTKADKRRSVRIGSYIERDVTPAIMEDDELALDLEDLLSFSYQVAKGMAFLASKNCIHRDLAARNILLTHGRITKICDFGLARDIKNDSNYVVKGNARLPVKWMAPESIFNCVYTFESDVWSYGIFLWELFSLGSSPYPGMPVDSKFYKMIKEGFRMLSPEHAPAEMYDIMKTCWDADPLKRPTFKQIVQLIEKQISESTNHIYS

| Kd [nM] | SMILES |
| --- | --- |
| < 100 | CC(C)(C)c1cc(NC(=O)Nc2ccc(Nc3nc(Cl)nc4[nH]cnc34)cc2)no1 [Compound O4] |
| 100 to 1000 | Cc1nc(N)cc(Nc2ccc(NC(=O)Nc3cc(C(C)(C)C)on3)cc2)n1 [Compound O10] |
| < 100 | CC(C)(C)c1cc(NC(=O)Nc2ccc(NC(=O)c3cc4ccccc4cn3)cc2)no1 [Compound N106] |
| 100 to 1000 | Cc1ccc2sc(C(=O)Nc3ccc(NC(=O)Nc4cc(C(C)(C)C)on4)cc3)cc2c1 [Compound N133] |
| < 100 | CC(C)(C)c1cc(NC(=O)Nc2ccc(NC(=O)c3ccc4ccncc4n3)cc2)no1 [Compound N110] |
| 100 to 1000 | CC(C)(C)c1cc(NC(=O)Nc2ccc(NC(=O)/C=C/c3ccccc3Cl)cc2)no1 [Compound N40] |
| < 100 | Cc1cnc(C(=O)Nc2ccc(NC(=O)Nc3cc(C(C)(C)C)on3)cc2)cn1 [Compound O2] |
| 100 to 1000 | Cc1ccc(C(=O)Nc2ccc(NC(=O)Nc3cc(C(C)(C)C)on3)cc2)cc1 [Compound N92] |
| < 100 | Cc1cccc(C(=O)Nc2ccc(NC(=O)Nc3cc(C(C)(C)C)on3)cc2)n1 [Compound N121] |
| 1000 to 10000 | CC(C)(C)c1cc(NC(=O)Nc2ccc(NC(=O)c3cc(Cl)nnc3Cl)cc2)no1 [Compound N174] |
| < 100 | CC(C)(C)c1cc(NC(=O)Nc2ccc(NC(=O)c3ccc4ccccc4n3)cc2)no1 [Compound N143] |
| 100 to 1000 | CC(C)(C)c1cc(NC(=O)Nc2ccc(NC(=O)c3ccc4sccc4c3)cc2)no1 [Compound N122] |
| < 100 | CC(C)(C)c1cc(NC(=O)Nc2ccc(NC(=O)c3ccc4ccccc4c3)cc2)no1 [Compound N28] |
| < 100 | Cc1cccnc1C(=O)Nc1ccc(NC(=O)Nc2cc(C(C)(C)C)on2)cc1 [Compound N41] |
| < 100 | CC(C)(C)c1cc(NC(=O)Nc2ccc(NC(=O)c3cnccn3)cc2)no1 [Compound N136] |
| 1000 to 10000 | CC1CN(CCOc2ccc(NC(=O)Nc3cc(C(C)(C)C)on3)cc2)CC(C)O1 (centres unmarked) [Compound G42] |
| 100 to 1000 | CSc1ncc(Br)c(C(=O)Nc2ccc(NC(=O)Nc3cc(C(C)(C)C)on3)cc2)n1 [Compound N114] |

The compounds below were run against T2, KIT(JMminus) (Homo sapiens, UniProt P10721) (assay: Binding constant (Kd) measurement, phage-displayed kinase competition binding assay: KIT(JMminus)).
T2 construct: KIT(JMminus); made in house
T2 sequence (P10721 589-937 limits assumed): as above
Description: as §1

| Kd [nM] | SMILES |
| --- | --- |
| 1000 to 10000 | COc1ccc(NC(=O)Nc2cc(C(C)(C)C)on2)cc1OC [Compound A55] |
| < 100 | Cc1ccc(-c2nc(C(=O)Nc3ccc(NC(=O)Nc4cc(C(C)(C)C)on4)cc3)cs2)cc1 [Compound N178] |
| < 100 | CC(C)(C)c1cc(NC(=O)Nc2ccc(Nc3nc(Cl)nc4[nH]cnc34)cc2)no1 [Compound O4] |
| < 100 | Cc1nc(N)cc(Nc2ccc(NC(=O)Nc3cc(C(C)(C)C)on3)cc2)n1 [Compound O10] |
| < 100 | CC(C)(C)c1cc(NC(=O)Nc2ccc(NC(=O)c3sccc3OCc3cccc(C(F)(F)F)c3)cc2)no1 [Compound N183] |
| < 100 | CC(C)(C)c1cc(NC(=O)Nc2ccc(NC(=O)c3cc(-c4ccc(O)cc4)cs3)cc2)no1 [Compound N77] |
| < 100 | CC(C)(C)c1cc(C(=O)Nc2ccc(NC(=O)Nc3cc(C(C)(C)C)on3)cc2)n(-c2ccccc2)n1 [Compound N78] |
| < 100 | COc1cc(OC)nc(Sc2ccccc2C(=O)Nc2ccc(NC(=O)Nc3cc(C(C)(C)C)on3)cc2)n1 [Compound N47] |
| 100 to 1000 | COc1ccc(C(=O)c2c[nH]c(C(=O)Nc3ccc(NC(=O)Nc4cc(C(C)(C)C)on4)cc3)c2)cc1 [Compound N177] |
| < 100 | CC(C)(C)c1cc(NC(=O)Nc2ccc(NC(=O)c3cc4ccccc4cn3)cc2)no1 [Compound N106] |
| < 100 | COc1ccnc(Nc2ccc(C(=O)Nc3ccc(NC(=O)Nc4cc(C(C)(C)C)on4)cc3)cc2)n1 [Compound N51] |
| < 100 | Cc1ccc2sc(C(=O)Nc3ccc(NC(=O)Nc4cc(C(C)(C)C)on4)cc3)cc2c1 [Compound N133] |
| < 100 | CC(C)(C)c1cc(NC(=O)Nc2ccc(NC(=O)c3ccc4ccncc4n3)cc2)no1 [Compound N110] |
| < 100 | Cc1nc(-c2ccc(Cl)cc2)sc1C(=O)Nc1ccc(NC(=O)Nc2cc(C(C)(C)C)on2)cc1 [Compound N184] |
| < 100 | CN(C)c1ccc(C(=O)Nc2ccc(NC(=O)Nc3cc(C(C)(C)C)on3)cc2)cn1 [Compound N159] |
| < 100 | CC(C)(C)c1cc(NC(=O)Nc2ccc(NC(=O)/C=C/c3ccccc3Cl)cc2)no1 [Compound N40] |
| 100 to 1000 | COc1cc(OC)nc(Oc2cccnc2C(=O)Nc2ccc(NC(=O)Nc3cc(C(C)(C)C)on3)cc2)n1 [Compound N56] |
| 1000 to 10000 | CC(C)(C)c1cc(NC(=O)Nc2ccc(NC(=O)c3cc(O)c4cccc(O)c4n3)cc2)no1 [Compound N176] |
| 100 to 1000 | CC(C)c1nnsc1C(=O)Nc1ccc(NC(=O)Nc2cc(C(C)(C)C)on2)cc1 [Compound N182] |
| < 100 | Cc1cnc(C(=O)Nc2ccc(NC(=O)Nc3cc(C(C)(C)C)on3)cc2)cn1 [Compound O2] |
| < 100 | CC(C)(C)c1cc(NC(=O)Nc2ccc(NC(=O)c3nocc3C(C)(C)C)cc2)no1 [Compound N82] |
| < 100 | COc1cc(OC)nc(C2CCCCC2C(=O)Nc2ccc(NC(=O)Nc3cc(C(C)(C)C)on3)cc2)n1 (centres unmarked) [Compound N129] |
| < 100 | CC(C)(C)c1cc(NC(=O)Nc2ccc(NC(=O)c3cccc[n+]3[O-])cc2)no1 [Compound N81] |

| Kd [nM] | SMILES |
| --- | --- |
| < 100 | CC(C)(C)c1cc(NC(=O)Nc2ccc(NC(=O)c3nccc4ccccc34)cc2)no1 [Compound N117] |
| 100 to 1000 | CC(C)(C)c1cc(NC(=O)Nc2ccc3c(c2)OCO3)no1 [Compound A56] |
| 100 to 1000 | COc1cc(NC(=O)CCC(=O)N2CCNC(=O)CC2)ccc1NC(=O)Nc1cc(C(C)(C)C)on1 [Compound N172] |
| < 100 | Cc1ccc(C(=O)Nc2ccc(NC(=O)Nc3cc(C(C)(C)C)on3)cc2)cc1 [Compound N92] |
| 100 to 1000 | COc1cc(OC)nc(Oc2ccccc2C(=O)Nc2ccc(NC(=O)Nc3cc(C(C)(C)C)on3)cc2)n1 [Compound N70] |
| < 100 | Cc1cccc(C(=O)Nc2ccc(NC(=O)Nc3cc(C(C)(C)C)on3)cc2)n1 [Compound N121] |
| < 100 | Cn1nc(C(F)(F)F)c(C(=O)Nc2ccc(NC(=O)Nc3cc(C(C)(C)C)on3)cc2)c1Cl [Compound N68] |
| 100 to 1000 | CC(C)(C)c1cc(NC(=O)Nc2ccc(NC(=O)c3nnsc3Cc3ccc(Cl)cc3)cc2)no1 [Compound N71] |
| 1000 to 10000 | CC(C)(C)c1cc(NC(=O)Nc2ccc(NC(=O)c3cc(Cl)nnc3Cl)cc2)no1 [Compound N174] |
| < 100 | CC(C)(C)c1cc(NC(=O)Nc2ccc(NC(=O)c3ccc4ccccc4n3)cc2)no1 [Compound N143] |
| < 100 | CC(C)(C)c1cc(NC(=O)Nc2ccc(Nc3cc(N)nc(N)n3)cc2)no1 [Compound O7] |
| < 100 | CC(C)(C)c1cc(NC(=O)Nc2ccc(NC(=O)c3cc(N4CCOCC4)nc(N4CCOCC4)c3)cc2)no1 [Compound N54] |
| < 100 | COc1cc(NC(=O)c2cn3nc(Cl)ccc3n2)ccc1NC(=O)Nc1cc(C(C)(C)C)on1 [Compound N171] |
| 100 to 1000 | CC(C)(C)c1cc(NC(=O)Nc2ccc(NC(=O)c3cc4cc(F)cc(S(C)(=O)=O)c4[nH]3)cc2)no1 [Compound N58] |
| < 100 | Cc1nc(-c2ccccc2)sc1C(=O)Nc1ccc(NC(=O)Nc2cc(C(C)(C)C)on2)cc1 [Compound N181] |
| < 100 | COc1cc(OC)nc(N(C)c2cccc(C(=O)Nc3ccc(NC(=O)Nc4ccon4)cc3)c2)n1 [Compound N53] |
| < 100 | CC(=O)c1ccc(N2CCC(C(=O)Nc3ccc(NC(=O)Nc4cc(C(C)(C)C)on4)cc3)CC2)cc1 [Compound N65] |
| < 100 | CC(C)(C)c1cc(NC(=O)Nc2ccc(NC(=O)Cc3sc(-c4ccc(Cl)cc4)nc3-c3ccccc3)cc2)no1 [Compound N66] |
| < 100 | CC(C)(C)c1cc(NC(=O)Nc2ccc(NC(=O)c3ccc(Oc4ccnc(C(=O)O)c4)cc3)cc2)no1 [Compound N166] |
| < 100 | CC(C)(C)c1cc(NC(=O)Nc2ccc(NC(=O)c3ccc4sccc4c3)cc2)no1 [Compound N122] |
| < 100 | CC(C)(C)c1cc(NC(=O)Nc2ccc(NC(=O)c3nnsc3Sc3ccc(C(F)(F)F)cc3)cc2)no1 [Compound N179] |
| < 100 | CC(C)(C)c1cc(NC(=O)Nc2ccc(NC(=O)c3cscn3)cc2)no1 [Compound N57] |
| < 100 | Cc1cnc(C(=O)Nc2ccc(NC(=O)Nc3cc(C(C)(C)C)on3)cc2)c(C(=O)O)n1 [Compound N160] |

| Kd [nM] | SMILES |
| --- | --- |
| < 100 | CC(C)(C)c1cc(NC(=O)Nc2ccc(NC(=O)c3ccc4ccccc4c3)cc2)no1 [Compound N28] |
| < 100 | CC(C)(C)c1cc(NC(=O)Nc2ccc(NC(=O)c3cccnc3C(=O)O)cc2)no1 [Compound N165] |
| < 100 | CC(C)(C)c1cc(NC(=O)Nc2ccc(NC(=O)c3cn4c(n3)sc3ccccc34)cc2)no1 [Compound N73] |
| < 100 | CC(C)(C)c1cc(NC(=O)Nc2ccc(Nc3nc(N)nc4[nH]cnc34)cc2)no1 [Compound O6] |
| < 100 | CC(C)(C)c1cc(NC(=O)Nc2ccc(NC(=O)C3=Cc4cc(F)cc(S(C)(=O)=O)c4C3)cc2)no1 [Compound N62] |
| < 100 | CCOC(=O)c1cccc(C(=O)Nc2ccc(NC(=O)Nc3cc(C(C)(C)C)on3)cc2)n1 [Compound N164] |
| < 100 | Cc1cccnc1C(=O)Nc1ccc(NC(=O)Nc2cc(C(C)(C)C)on2)cc1 [Compound N41] |
| < 100 | CC(=O)c1c[nH]c(C(=O)Cc2ccc(NC(=O)Nc3cc(C(C)(C)C)on3)cc2)c1 [Compound N43] |
| 1000 to 10000 | CC(C)(C)c1cc(NC(=O)Nc2ccc(NC(=O)c3ccccc3O)cc2)no1 [Compound N69] |
| 100 to 1000 | CC(C)(C)c1cc(NC(=O)Nc2ccc(NC(=O)c3cc4cccnc4nc3C(F)(F)F)cc2)no1 [Compound N61] |
| < 100 | CC(C)(C)c1cc(NC(=O)Nc2ccc(NC(=O)c3csc(Cc4cccc(C(F)(F)F)c4)n3)cc2)no1 [Compound N180] |
| < 100 | COc1cc(C(=O)Nc2ccc(NC(=O)Nc3cc(C(C)(C)C)on3)cc2)nc(OC)n1 [Compound N162] |
| < 100 | CC(C)(C)c1cc(NC(=O)Nc2ccc(NC(=O)c3cc(Br)cn(Cc4ccccc4)c3=O)cc2)no1 [Compound N67] |
| 100 to 1000 | CC(C)c1cc(NC(=O)Nc2ccc(NC(=O)C3CCN(c4ncc(C(F)(F)F)cc4Cl)CC3)cc2)no1 [Compound N59] |
| < 100 | CC(C)(C)c1cc(NC(=O)Nc2ccc(NC(=O)c3cc4cccc5c4n(c3=O)CC5)cc2)no1 [Compound N60] |
| < 100 | COc1cc(OC)nc(Nc2cccc(C(=O)Nc3ccc(NC(=O)Nc4cc(C(C)(C)C)on4)cc3)c2)n1 [Compound N49] |
| 100 to 1000 | Cn1nc(C(F)(F)F)c2cc(C(=O)Nc3ccc(NC(=O)Nc4cc(C(C)(C)C)on4)cc3)sc21 [Compound N64] |
| < 100 | Cc1cc(NC(=O)[C@](C)(O)CSc2ccc(F)cc2)ccc1NC(=O)Nc1cc(C(C)(C)C)on1 [Compound N170] |
| < 100 | CC(C)(C)c1cc(NC(=O)Nc2ccc([N+](=O)[O-])cc2)no1 [Compound A21] |
| < 100 | CC(C)(C)c1cc(NC(=O)Nc2ccc(NC(=O)Cc3noc4ccccc34)cc2)no1 [Compound N80] |
| < 100 | Cc1cc(NC(=O)c2cn3nc(Cl)ccc3n2)ccc1NC(=O)Nc1cc(C(C)(C)C)on1 [Compound N169] |
| < 100 | CC(C)(C)c1cc(NC(=O)Nc2ccc(NC(=O)CNCC(=O)Nc3ccccc3)cc2)no1 [Compound N72] |
| < 100 | CC(C)(C)c1cc(NC(=O)Nc2ccc(NC(=O)c3nn(-c4cccc(C(F)(F)F)c4)c(=O)cc3O)cc2)no1 [Compound N185] |
